Measurements: patent publication EP1377579B1 (Aventis Pharmaceuticals Inc., priority 2000, dated 2002)
Where a name gives a salt, the structure may show the parent alone. Read-outs that look alike come from different tables or passages of the source.

Tests used:
[1] = test system: HL-60; assay: In vitro proliferation assay (MTT), HL-60; format: cell-based; details: Homo sapiens
Experimental: (§1) The proliferation of tumor cells can be measured using a tetrazolium salt-based assay known as the MTT (3-[4,5-Dimethylthiazol-2-yl]-2,5-diphenyltetrazolium bromide) assay. The proliferation test is performed essentially as described by Carmichael et al., Cancer Res. 47: 936-942, 1987. For the assay, the cell lines are plated onto 96 well plates at 1000 to 2500 cells/well (depending on the properties of the individual cell lines), left to attach and recover overnight. […] After 3 days, the cells are incubated with MTT dye (3-[4,5-Dimethylthiazol-2-yl]-2,5-diphenyltetrazolium bromide, Sigma # M5655, 10 mg/ml in Hank's Buffered Saline) to estimate the amount of live cells remaining vs. concentration for the test compounds. Specifically, MTT solution is added to a final concentration of […] and the plates incubated at 37 C for 2 to 4 hr. The MTT and culture medium is then removed from the cultures and 200 µl of DMSO is added to solubilize the dye from the cell layer. The absorbance at 570 nm is determined for each culture using a Spectramax plate reader (Molecular Devices).
(§2) IC50s were determined from the raw data from either the MTT or SRB assays.
(§3) All of the cell lines were obtained from American Type Tissue Collection, with the ATCC accession number in parentheticals. MCF-7 and MDA-MB-231 cells were grown in improved minimum essential medium (Biofluids) without phenol red, supplemented with 5 % fetal bovine serum, 0.01 mg/ml gentamicin and 3 mM L-glutamine. All of the other cell lines were grown in RPMI 1640 medium (Life Technologies) supplemented with 5 % fetal bovine serum, 0.01 mg/ml gentamicin and 3 mM L-glutamine TABLE 3

[2] = test system: MDA-MB-435; assay: In vitro proliferation assay (MTT), MDA-MB-435; format: cell-based, human; details: Homo sapiens
Outline: (§4)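 Cells were seeded at 1000 to 2500 cells/well, allowed to attach overnight, then exposed to test compounds for 3 days. Viable cells were estimated by MTT dye reduction, with dye solubilized in DMSO and absorbance read at 570 nm; IC50s derived from raw data.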

[3] = target: cdk2/cyclin E (Homo sapiens, UniProt P24941); assay: Cyclin-dependent kinase assay, cdk2/cyclin E; details: CDK2 IC50, nM, GST-pRb substrate, 10 µM ATP
[4] = test system: Colo-205; assay: In vitro proliferation assay (MTT), Colo-205; format: cell-based; details: Homo sapiens
Experimental: as §1, §2

[5] = test system: PC-3; assay: In vitro proliferation assay (MTT), PC-3; format: cell-based, human; details: Homo sapiens
Outline: as §4

[6] = test system: NCI-H460; assay: In vitro proliferation assay (MTT), NCI-H460; format: cell-based; details: Homo sapiens
Experimental: as §1, §2, §3

[7] = target: cdk4/cyclin D1 (Homo sapiens, UniProt P11802); assay: Cyclin-dependent kinase assay, cdk4/cyclin D1; format: biochemical; details: cyclin D1/cdk4; GST-pRb substrate, 10 µM ATP
[8] = target: cdk1/cyclin B (Homo sapiens, UniProt P06493); assay: Cyclin-dependent kinase assay, cdk1/cyclin B; details: CDK1 IC50, nM, Histone H1, 10 µM ATP
[9] = test system: Jurkat; assay: In vitro proliferation assay (MTT), Jurkat; format: cell-based; details: Homo sapiens, read-out: Jurkat Leuk. (IC50 µM)
Experimental: as §1, §2, §3

[10] = HL-60, MTT assay, value (SD, n) where given, read-out: HL-60 Leuk. (IC50 µM)
[11] = MDA-MB-435, MTT assay, value (SD, n) where given, read-out: MB-435 Breast (IC50 µM)
[12] = COLO 205, MTT assay, value (SD, n) where given, read-out: Colo-205 Colon (IC50 µM)
[13] = PC-3, MTT assay, value (SD, n) where given, read-out: PC-3 Prostate (IC50 µM)
[14] = NCI-H460, MTT assay, value (SD, n) where given, read-out: H-460 Lung (IC50 µM)
[15] = MTT assay, value (SD, n) where given

Chain of cdk1/cyclin B (P06493 whole entry): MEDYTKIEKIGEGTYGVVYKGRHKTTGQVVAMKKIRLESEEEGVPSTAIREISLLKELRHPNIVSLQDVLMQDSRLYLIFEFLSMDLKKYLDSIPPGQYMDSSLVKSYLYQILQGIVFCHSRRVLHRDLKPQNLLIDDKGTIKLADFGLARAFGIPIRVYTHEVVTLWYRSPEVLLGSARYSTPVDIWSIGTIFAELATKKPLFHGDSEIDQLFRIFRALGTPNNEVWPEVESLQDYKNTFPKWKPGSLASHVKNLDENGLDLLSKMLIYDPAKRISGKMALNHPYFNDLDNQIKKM
Chain of cdk1/cyclin B (P14635 whole entry partner): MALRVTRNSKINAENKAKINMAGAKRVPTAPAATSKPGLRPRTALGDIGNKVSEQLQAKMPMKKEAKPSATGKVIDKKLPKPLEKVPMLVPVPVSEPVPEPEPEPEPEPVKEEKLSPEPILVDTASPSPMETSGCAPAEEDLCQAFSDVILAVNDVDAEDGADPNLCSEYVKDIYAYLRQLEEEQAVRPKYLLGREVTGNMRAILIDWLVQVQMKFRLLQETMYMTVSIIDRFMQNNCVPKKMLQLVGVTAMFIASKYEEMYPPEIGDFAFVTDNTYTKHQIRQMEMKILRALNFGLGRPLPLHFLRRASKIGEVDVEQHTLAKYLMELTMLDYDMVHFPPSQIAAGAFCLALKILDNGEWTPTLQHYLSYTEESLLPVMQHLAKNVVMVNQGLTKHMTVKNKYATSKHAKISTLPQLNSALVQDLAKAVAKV
Chain of cdk4/cyclin D1 (P11802 whole entry): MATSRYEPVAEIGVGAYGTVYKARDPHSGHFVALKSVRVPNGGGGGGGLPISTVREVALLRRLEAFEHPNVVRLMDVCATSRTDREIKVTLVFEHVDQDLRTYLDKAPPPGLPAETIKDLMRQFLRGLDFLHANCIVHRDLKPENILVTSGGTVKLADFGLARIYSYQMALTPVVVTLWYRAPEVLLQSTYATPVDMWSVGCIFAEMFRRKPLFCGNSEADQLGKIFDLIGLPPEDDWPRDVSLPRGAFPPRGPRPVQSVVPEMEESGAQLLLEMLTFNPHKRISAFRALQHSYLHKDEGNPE
Chain of cdk4/cyclin D1 (P24385 whole entry partner): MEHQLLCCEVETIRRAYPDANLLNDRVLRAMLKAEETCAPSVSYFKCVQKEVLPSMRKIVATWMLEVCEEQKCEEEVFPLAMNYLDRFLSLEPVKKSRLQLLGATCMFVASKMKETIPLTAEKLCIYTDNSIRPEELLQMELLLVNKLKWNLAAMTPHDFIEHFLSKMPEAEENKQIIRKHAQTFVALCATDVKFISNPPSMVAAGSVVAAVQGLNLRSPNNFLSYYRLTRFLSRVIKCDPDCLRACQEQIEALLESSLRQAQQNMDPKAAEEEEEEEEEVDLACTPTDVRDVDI

SMILES | IC50 [1, 10] | IC50 [2, 11] | IC50 [3] | IC50 [4, 12] | IC50 [5, 13] | IC50 [6, 14] | IC50 [7] | IC50 [8] | IC50 [9, 15] | IC50 ([1]; HL-60, read-out: HL-60 Leuk. (IC50 µM)) | IC50 ([2]; MDA-MB-435, read-out: MB-435 Breast (IC50 µM)) | IC50 ([4]; COLO 205, read-out: Colo-205 Colon (IC50 µM)) | IC50 ([5]; PC-3, read-out: PC-3 Prostate (IC50 µM)) | IC50 ([6]; NCI-H460, read-out: H-460 Lung (IC50 µM)) | IC50 [9]
N[C@H]1CC[C@H](Nc2nc(NC3CCN(C(=O)NC45CC6CC(CC(C6)C4)C5)CC3)c3ncn(C4CCCC4)c3n2)CC1 (relative stereo) [compound 181, trans-4-[2-(4-Amino-cyclohexylamino)-9-cyclopentyl-9H-purin-6-ylamino]-piperidine-1-carboxylic acid adamantan-1-ylamide dihydrochloride] | 0.06 µM | 0.24 µM | 548 nM | 0.04 µM | 0.25 µM | 0.29 µM | 1300 nM | 67 nM | 0.33 µM |  |  |  |  |  | 
CCCCOC(=O)N1CCC(Nc2nc(N[C@H]3CC[C@H](N)CC3)nc3c2ncn3C2CCCC2)CC1 [compound 92, trans-4-[2-(4-Amino-cyclohexylamino)-9-cyclopentyl-9H-purin-6-ylamino]-piperidine-1-carboxylic acid butyl ester dihydrochloride] | 0.07 µM | 0.33 µM | 18 nM | 0.2 µM | 0.2 µM | 0.2 µM | 2100 nM | 45 nM | 0.25 µM |  |  |  |  |  | 
CCOC(=O)N1CCC(Nc2nc(N[C@H]3CC[C@H](N)CC3)nc3c2ncn3C2CCCC2)CC1 [compound 93, trans-4-[2-(4-Amino-cyclohexylamino)-9-cyclopentyl-9H-purin-6-ylamino]-piperidine-1-carboxylic acid ethyl ester dihydrochloride] | 0.07 µM | 0.25 µM | 5 nM | 0.18 µM | 0.26 µM | 0.2 µM | 856 nM | 46 nM | 0.16 µM |  |  |  |  |  | 
N[C@H]1CC[C@H](Nc2nc(NC3CCN(C(=O)OCc4ccc([N+](=O)[O-])cc4)CC3)c3ncn(C4CCCC4)c3n2)CC1 [compound 94, trans-4-[2-(4-Amino-cyclohexylamino)-9-cyclopentyl-9H-purin-6-ylamino]-piperidine-1-carboxylic acid 4-nitro-benzyl ester dihydrochloride] | 0.06 µM | 0.14 µM | 69 nM | 0.07 µM | 0.13 µM | 0.14 µM | 827 nM | 27 nM | 0.18 µM |  |  |  |  |  | 
C=CCOC(=O)N1CCC(Nc2nc(N[C@H]3CC[C@H](N)CC3)nc3c2ncn3C2CCCC2)CC1 [compound 95, trans-4-[2-(4-Amino-cyclohexylamino)-9-cyclopentyl-9H-purin-6-ylamino]-piperidine-1-carboxylic acid allyl ester dihydrochloride] | 0.06 µM | 0.24 µM | 23 nM | 0.1 µM | 0.21 µM | 0.2 µM | 526 nM | 75 nM | 0.18 µM |  |  |  |  |  | 
N[C@H]1CC[C@H](Nc2nc(NC3CCN(C(=O)Oc4ccccc4[N+](=O)[O-])CC3)c3ncn(C4CCCC4)c3n2)CC1 [compound 99, trans-4-[2-(4-Amino-cyclohexylamino)-9-cyclopentyl-9H-purin-6-ylamino]-piperidine-1-carboxylic acid 2-nitro-phenyl ester dihydrochloride] |  |  | 9 nM |  |  |  | 1520 nM | 33 nM |  | < 0.02 µM | 0.12 µM | 0.05 µM | 0.2 µM | 0.16 µM | 0.11 µM
C=CCCOC(=O)N1CCC(Nc2nc(N[C@H]3CC[C@H](N)CC3)nc3c2ncn3C2CCCC2)CC1 [compound 100, trans-4-[2-(4-Amino-cyclohexylamino)-9-cyclopentyl-9H-purin-6-ylamino]-piperidine-1-carboxylic acid but-3-enyl ester dihydrochloride] | 0.05 µM | 0.25 µM | 50 nM | 0.11 µM | 0.22 µM | 0.17 µM |  | 60 nM | 0.19 µM |  |  |  |  |  | 
C#CCOC(=O)N1CCC(Nc2nc(N[C@H]3CC[C@H](N)CC3)nc3c2ncn3C2CCCC2)CC1 [compound 102, trans-4-[2-(4-Amino-cyclohexylamino)-9-cyclopentyl-9H-purin-6-ylamino]-piperidine-1-carboxylic acid prop-2-ynyl ester dihydrochloride] | < 0.02 µM | 0.19 µM | 42 nM | 0.14 µM | 0.14 µM | 0.2 µM | 926 nM | 31 nM | 0.11 µM |  |  |  |  |  | 
N[C@H]1CC[C@H](Nc2nc(NC3CCN(S(=O)(=O)c4cccc5ccccc45)CC3)c3ncn(C4CCCC4)c3n2)CC1 [compound 123, trans-N^2-(4-Amino-cyclohexyl)-9-cyclopentyl-N^6-[1-(naphthalene-1-sulfonyl)-piperidin-4-yl]-9H-purine-2,6-diamine dihydrochloride] | 0.15 µM | 0.26 µM | 54 nM | 0.07 µM | 0.2 µM | 0.29 µM | 49 nM | 62 nM | 0.22 µM |  |  |  |  |  | 
N[C@H]1CC[C@H](Nc2nc(NC3CCN(S(=O)(=O)c4ccc(C(F)(F)F)cc4[N+](=O)[O-])CC3)c3ncn(C4CCCC4)c3n2)CC1 [compound 132, trans-N^2-(4-Amino-cyclohexyl)-9-cyclopentyl-N^6-[1-(2-nitro-4-trifluoromethyl-benzenesulfonyl)-piperidin-4-yl]-9H-purine-2,6-diamine dihydrochloride] | < 0.02 µM | 0.21 µM | 35 nM | 0.04 µM | 0.15 µM | 0.12 µM | 590 nM | 74 nM | 0.21 µM |  |  |  |  |  | 
N[C@H]1CC[C@H](Nc2nc(NC3CCN(S(=O)(=O)c4cccc5cccnc45)CC3)c3ncn(C4CCCC4)c3n2)CC1 [compound 144, trans-N^2-(4-Amino-cyclohexyl)-9-cyclopentyl-N^6-[1-(quinoline-8-sulfonyl)-piperidin-4-yl]-9H-purine-2,6-diamine dihydrochloride] | 0.12 µM | 0.16 µM | 2 nM | 0.05 µM | 0.18 µM | 0.33 µM | 75 nM | 2 nM | 0.25 µM |  |  |  |  |  | 
N[C@H]1CC[C@H](Nc2nc(NC3CCN(C(=O)Nc4ccccc4)CC3)c3ncn(C4CCCC4)c3n2)CC1 [compound 146, trans-4-[2-(4-Amino-cyclohexylamino)-9-cyclopentyl-9H-purin-6-ylamino]-piperidine-1-carboxylic acid phenylamide dihydrochloride] | 0.04 µM | 0.35 µM | 42 nM | < 0.02 µM | 0.34 µM | 0.42 µM | 200 nM | 18 nM | 0.32 µM |  |  |  |  |  | 
N[C@H]1CC[C@H](Nc2nc(NC3CCN(C(=O)Nc4ccc(F)cc4)CC3)c3ncn(C4CCCC4)c3n2)CC1 [compound 147, trans-4-[2-(4-Amino-cyclohexylamino)-9-cyclopentyl-9H-purin-6-ylamino]-piperidine-1-carboxylic acid (4-fluoro-phenyl)-amide dihydrochloride] | 0.03 µM | 0.33 µM | 46 nM | < 0.02 µM | 0.36 µM | 0.56 µM | 258 nM | 38 nM | 0.51 µM |  |  |  |  |  | 
